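Values below derive from 48-hour exposures of cells grown in 96-well plates, with endpoints linearly interpolated between the two concentrations bracketing the appropriate inhibition level. GI50 = concentration required for 50% inhibition of growth.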 Active and inactive are the calls of the source. No stated cut-off is given here; in the data, active = GI50 up to about 1.1 µM and inactive = higher.
Legend:
Assay in all cases: DTP human tumour cell line panel, 48 h
MDA-MB-231 = tested on: MDA-MB-231
M14 = tested on: M14
K562 = tested on: K562
Malme-3M = tested on: Malme-3M
NCI/ADR-RES = tested on: NCI/ADR-RES
T47D = tested on: T47D
Hs-578T = tested on: Hs-578T
BT-549 = tested on: BT-549
MDA-MB-435 = tested on: MDA-MB-435
OVCAR-3 = tested on: OVCAR-3
U-251 = tested on: U-251
HT-29 = tested on: HT-29
NCI-H522 = tested on: NCI-H522
SK-MEL-2 = tested on: SK-MEL-2
UACC-257 = tested on: UACC-257
786-0 = tested on: 786-0
PC-3 = tested on: PC-3
HOP-62 = tested on: HOP-62
HL-60 = tested on: HL-60
NCI-H460 = tested on: NCI-H460
RPMI-8226 = tested on: RPMI-8226
RXF 393 = tested on: RXF 393
SK-MEL-5 = tested on: SK-MEL-5
SF-295 = tested on: SF-295
TK-10 = tested on: TK-10
MDA-N = tested on: MDA-N
ACHN = tested on: ACHN
A549 = tested on: A549
SK-OV-3 = tested on: SK-OV-3
DU-145 = tested on: DU-145
MCF7 = tested on: MCF7
COLO 205 = tested on: COLO 205
HCC 2998 = tested on: HCC 2998
UACC-62 = tested on: UACC-62
MOLT-4 = tested on: MOLT-4
OVCAR-5 = tested on: OVCAR-5
A498 = tested on: A498
CCRF-CEM = tested on: CCRF-CEM
HCT-116 = tested on: HCT-116
SF-539 = tested on: SF-539
SN12C = tested on: SN12C
IGROV-1 = tested on: IGROV-1
SF-268 = tested on: SF-268
EKVX = tested on: EKVX
OVCAR-8 = tested on: OVCAR-8
SNB-75 = tested on: SNB-75
NCI-H226 = tested on: NCI-H226
NCI-H23 = tested on: NCI-H23
CAKI-1 = tested on: CAKI-1

Measured: GI50

c1ccc2c(CN3CCC(C4CCN(Cc5cccc6ccccc56)CC4)CC3)cccc2c1
inactive: MDA-MB-231 21.4 µM | M14 1.98 µM | K562 1.6 µM | Malme-3M 3.47 µM | NCI/ADR-RES 38.3 µM | T47D 23.1 µM | Hs-578T 32.1 µM | BT-549 > 56 µM | MDA-MB-435 3.52 µM | OVCAR-3 > 58.6 µM | U-251 16.5 µM | HT-29 3.28 µM | NCI-H522 8.53 µM | SK-MEL-2 8.41 µM | UACC-257 3.48 µM | 786-0 16.3 µM | PC-3 32.8 µM | HOP-62 25.4 µM | HL-60 3.01 µM | NCI-H460 16.3 µM | RPMI-8226 2.57 µM | RXF 393 21.8 µM | SK-MEL-5 4.89 µM | SF-295 6.28 µM | TK-10 20.1 µM | MDA-N 8.13 µM | ACHN 33.3 µM | A549 62.7 µM | SK-OV-3 28 µM | DU-145 86.1 µM | MCF7 26.5 µM | COLO 205 1.77 µM | HCC 2998 1.77 µM | UACC-62 7.43 µM | MOLT-4 5.27 µM

Cc1n[nH]c(=O)n1N1C(=O)CCCC1=O
inactive: MDA-MB-231 > 100 µM | OVCAR-5 > 100 µM | M14 > 100 µM | K562 63.4 µM | Malme-3M > 100 µM | NCI/ADR-RES > 100 µM | T47D > 100 µM | Hs-578T > 100 µM | A498 > 100 µM | CCRF-CEM > 100 µM | HCT-116 > 100 µM | SF-539 > 100 µM | BT-549 > 100 µM | MDA-MB-435 > 100 µM | SN12C > 100 µM | OVCAR-3 > 100 µM | U-251 > 100 µM | HT-29 > 100 µM | NCI-H522 > 100 µM | SK-MEL-2 > 100 µM | IGROV-1 > 100 µM | SF-268 > 100 µM | UACC-257 > 100 µM | 786-0 > 100 µM | EKVX > 100 µM | PC-3 > 100 µM | HOP-62 > 100 µM | OVCAR-8 > 100 µM | SNB-75 > 100 µM | NCI-H226 > 100 µM | RXF 393 > 100 µM | NCI-H23 > 100 µM | SK-MEL-5 > 100 µM | SF-295 > 100 µM | TK-10 > 100 µM | MDA-N > 100 µM | A549 > 100 µM | SK-OV-3 > 100 µM | DU-145 > 100 µM | MCF7 > 100 µM | COLO 205 > 100 µM | CAKI-1 > 100 µM | HCC 2998 > 100 µM | UACC-62 > 100 µM | MOLT-4 22.6 µM
